# The source made the active and inactive calls. No cut-off for these calls is given here.
# What was measured:
# [1] = test system: PLC-PRF-5; experiment: Induction of endoplasmic reticulum stress in human PLC/PRF/5 cells assessed as upregulation of ATF4 gene expression at 1.25 to 2.5 uM after 24 hrs by qRT-PCR method; format: functional, cell-based
# [2] = test system: PLC-PRF-5; experiment: Cytotoxicity against human PLC/PRF/5 cells assessed as decrease in cell viability at 1.25 to 2.5 uM after 24 hrs in presence of JNK inhibitor SP600125 by MTT assay; format: functional, cell-based
# [3] = Induction of apoptosis in human MHCC97L cells assessed as necrotic cells at 1.25 to 2.5 uM after 24 hrs by annexin V/7-AAD staining-based flow cytometric method (reference value: 3.44%); format: functional
# [4] = test system: MHCC97L; experiment: Cytotoxicity against human MHCC97L cells assessed as decrease in cell viability at 1.25 to 2.5 uM after 24 hrs in presence of endoplasmic reticulum stress reliever TUDCA by MTT assay; format: functional, cell-based
# [5] = target: T1, c-Jun N-terminal kinase, JNK (Homo sapiens) (UniProt P45983+P53779+P45984); experiment: Induction of JNK phosphorylation in human PLC/PRF/5 cells at 1.25 to 2.5 uM after 24 hrs by immunoblot method; format: cell-based
# [6] = test system: PLC-PRF-5; experiment: Induction of apoptosis in human PLC/PRF/5 cells assessed as early apoptotic cells at 1.25 to 2.5 uM after 24 hrs by annexin V/7-AAD staining-based flow cytometric method (reference value: 0.467%); format: functional
# [7] = Cell cycle arrest in human MHCC97L cells assessed as accumulation at S phase at 1.25 to 2.5 uM after 24 hrs by propidium iodide staining-based flow cytometric method (reference value: 18.41%); format: functional
# [8] = test system: MHCC97L; experiment: Induction of endoplasmic reticulum stress in human MHCC97L cells assessed as upregulation of ATF4 gene expression at 1.25 to 2.5 uM after 24 hrs by qRT-PCR method; format: functional, cell-based
# [9] = test system: MHCC97L; experiment: Cytotoxicity against human MHCC97L cells assessed as decrease in cell viability at 1.25 to 2.5 uM after 24 hrs in presence of autophagy inhibitor bafilomycin A1 by MTT assay; format: functional, cell-based
# [10] = test system: PLC-PRF-5; experiment: Induction of apoptosis in human PLC/PRF/5 cells assessed as necrotic cells at 1.25 to 2.5 uM after 24 hrs by annexin V/7-AAD staining-based flow cytometric method (reference value: 1.87%); format: functional
# [11] = test system: MHCC97L; experiment: Cytotoxicity against human MHCC97L cells assessed as decrease in cell viability at 1.25 to 2.5 uM after 24 hrs in presence of necrosis inhibitor necrostatin-1 by MTT assay; format: functional, cell-based
# [12] = test system: PLC-PRF-5; experiment: Cell cycle arrest in human PLC/PRF/5 cells assessed as accumulation at G0/G1 phase at 1.25 to 2.5 uM after 24 hrs by propidium iodide staining-based flow cytometric method (reference value: 69.17%); format: functional
# [13] = test system: PLC-PRF-5; experiment: Potency index, ratio of tetrandrine IC50 to test compound IC50 for human PLC/PRF/5 cells; format: functional
# [14] = test system: MHCC97L; experiment: Induction of endoplasmic reticulum stress in human MHCC97L cells assessed as upregulation of GRP78 gene expression at 1.25 to 2.5 uM after 24 hrs by qRT-PCR method; format: functional, cell-based
# [15] = test system: PLC-PRF-5; experiment: Potency index, ratio of sorafenib IC50 to test compound IC50 for human PLC/PRF/5 cells; format: functional
# [16] = target: T1, c-Jun N-terminal kinase, JNK (Homo sapiens); experiment: Induction of JNK activation in human PLC/PRF/5 cells assessed as increase in caspase 3 cleavage at 1.25 to 2.5 uM after 24 hrs by immunoblot method; format: cell-based
# [17] = target: T1, c-Jun N-terminal kinase, JNK (Homo sapiens); experiment: Induction of JNK activation in human MHCC97L cells assessed as increase in caspase 3 cleavage at 1.25 to 2.5 uM after 24 hrs by immunoblot method; format: cell-based
# [18] = Induction of apoptosis in human MHCC97L cells assessed as late apoptotic cells at 1.25 to 2.5 uM after 24 hrs by annexin V/7-AAD staining-based flow cytometric method (reference value: 3.66%); format: functional
# [19] = test system: MHCC97L; experiment: Cytotoxicity against human MHCC97L cells assessed as decrease in cell viability at 1.25 to 2.5 uM after 24 hrs in presence of JNK inhibitor SP600125 by MTT assay; format: functional, cell-based
# [20] = test system: MHCC97L; experiment: Cytotoxicity against human MHCC97L cells assessed as decrease in cell viability at 1.25 to 2.5 uM after 24 hrs in presence of caspase inhibitor Z-vad-fmk by MTT assay; format: functional, cell-based
# [21] = test system: PLC-PRF-5; experiment: Induction of apoptosis in human PLC/PRF/5 cells assessed as late apoptotic cells at 1.25 to 2.5 uM after 24 hrs by annexin V/7-AAD staining-based flow cytometric method (reference value: 2.66%); format: functional
# [22] = test system: MHCC97L; experiment: Induction of endoplasmic reticulum stress in human MHCC97L cells at 1.25 to 2.5 uM after 24 hrs by ER tracker red staining-based fluorescence microscopic method; format: functional, cell-based
# [23] = test system: PLC-PRF-5; experiment: Cytotoxicity against human PLC/PRF/5 cells assessed as decrease in cell viability at 1.25 to 2.5 uM after 24 hrs in presence of endoplasmic reticulum stress reliever TUDCA by MTT assay; format: functional, cell-based
# [24] = Potency index, ratio of tetrandrine IC50 to test compound IC50 for human MHCC97L cells; format: functional
# [25] = test system: PLC-PRF-5; experiment: Induction of apoptosis in human PLC/PRF/5 cells assessed as viable cells at 1.25 to 2.5 uM after 24 hrs by annexin V/7-AAD staining-based flow cytometric method (reference value: 95%); format: functional
# [26] = target: T1, c-Jun N-terminal kinase, JNK (Homo sapiens); experiment: Induction of JNK phosphorylation in human MHCC97L cells at 1.25 to 2.5 uM after 24 hrs by immunoblot method; format: cell-based
# [27] = Cell cycle arrest in human MHCC97L cells assessed as accumulation at G0/G1 phase at 1.25 to 2.5 uM after 24 hrs by propidium iodide staining-based flow cytometric method (reference value: 65.24%); format: functional
# [28] = test system: PLC-PRF-5; experiment: Induction of endoplasmic reticulum stress in human PLC/PRF/5 cells at 1.25 to 2.5 uM after 24 hrs by ER tracker red staining-based fluorescence microscopic method; format: functional, cell-based
# [29] = test system: PLC-PRF-5; experiment: Cell cycle arrest in human PLC/PRF/5 cells assessed as accumulation at S phase at 1.25 to 2.5 uM after 24 hrs by propidium iodide staining-based flow cytometric method (reference value: 20.73%); format: functional
# [30] = Induction of apoptosis in human MHCC97L cells assessed as viable cells at 1.25 to 2.5 uM after 24 hrs by annexin V/7-AAD staining-based flow cytometric method (reference value: 93.4%); format: functional
# [31] = test system: PLC-PRF-5; experiment: Induction of endoplasmic reticulum stress in human PLC/PRF/5 cells assessed as upregulation of GRP78 gene expression at 1.25 to 2.5 uM after 24 hrs by qRT-PCR method; format: functional, cell-based
# [32] = test system: PLC-PRF-5; experiment: Cytotoxicity against human PLC/PRF/5 cells assessed as decrease in cell viability at 1.25 to 2.5 uM after 24 hrs in presence of autophagy inhibitor bafilomycin A1 by MTT assay; format: functional, cell-based
# [33] = Potency index, ratio of sorafenib IC50 to test compound IC50 for human MHCC97L cells; format: functional
# [34] = test system: PLC-PRF-5; experiment: Cell cycle arrest in human PLC/PRF/5 cells assessed as accumulation at G2/M phase at 1.25 to 2.5 uM after 24 hrs by propidium iodide staining-based flow cytometric method (reference value: 18.18%); format: functional
# [35] = Cell cycle arrest in human MHCC97L cells assessed as accumulation at G2/M phase at 1.25 to 2.5 uM after 24 hrs by propidium iodide staining-based flow cytometric method (reference value: 20.60%); format: functional
# [36] = test system: PLC-PRF-5; experiment: Cytotoxicity against human PLC/PRF/5 cells assessed as decrease in cell viability at 1.25 to 2.5 uM after 24 hrs in presence of caspase inhibitor Z-vad-fmk by MTT assay; format: functional, cell-based
# [37] = test system: PLC-PRF-5; experiment: Cytotoxicity against human PLC/PRF/5 cells assessed as growth inhibition after 24 hrs by MTT assay; format: functional, cell-based; conditions: PLC-PRF-5, 24 h
# [38] = test system: PLC-PRF-5; experiment: Cytotoxicity against human PLC/PRF/5 cells assessed as decrease in cell viability at 1.25 to 2.5 uM after 24 hrs in presence of necrosis inhibitor necrostatin-1 by MTT assay; format: functional, cell-based
# [39] = Cytotoxicity against human MHCC97L cells assessed as growth inhibition after 24 hrs by MTT assay; format: functional, cell-based
# [40] = Induction of apoptosis in human MHCC97L cells assessed as early apoptotic cells at 1.25 to 2.5 uM after 24 hrs by annexin V/7-AAD staining-based flow cytometric method (reference value: 0.601%); format: functional
smiles,measurement,setting,value
COc1cc(NC(=O)c2ccco2)c2cc1Oc1ccc(cc1)C[C@H]1c3cc(c(OC)cc3CCN1C)Oc1c(OC)c(OC)cc3c1[C@H](C2)N(C)CC3,Activity,[1],Active
same,Activity,[2],inactive
same,Activity,[3],4.18%
same,Activity,[4],inactive
same,Activity,[5],Active
same,Activity,[6],16.9%
same,Activity,[7],21.59%
same,Activity,[8],Active
same,Activity,[9],Active
same,Activity,[10],3.9%
same,Activity,[11],Active
same,Activity,[12],67.11%
same,Ratio IC50,[13],15.8
same,Activity,[14],Active
same,Ratio IC50,[15],30.3
same,Activity,[16],Active
same,Activity,[17],Active
same,Activity,[18],39.6%
same,Activity,[19],inactive
same,Activity,[20],inactive
same,Activity,[21],42.8%
same,Activity,[22],Active
same,Activity,[23],inactive
same,Ratio IC50,[24],15.8
same,Activity,[25],36.4%
same,Activity,[26],Active
same,Activity,[27],68.52%
same,Activity,[28],Active
same,Activity,[29],21.55%
same,Activity,[30],46.4%
same,Activity,[31],Active
same,Activity,[32],Active
same,Ratio IC50,[33],30.3
same,Activity,[34],17.78%
same,Activity,[35],18.29%
same,Activity,[36],inactive
same,IC50,[37],1230 nM
same,Activity,[38],Active
same,IC50,[39],890 nM
same,Activity,[40],9.76%

# — ChEMBL document CHEMBL4004821, “Design and synthesis of novel tetrandrine derivatives as potential anti-tumor agents against human hepatocellular carcinoma” (Eur J Med Chem, 2017)
